Measured values reported in paper PMC4555095, “Inhibitory effects of magnolol and honokiol on human calcitonin aggregation” (Scientific Reports, 2015).
pKd: −log10 of the molar value.

Target: T1, Human calcitonin (hCT) (Homo sapiens, UniProt P01258)
T1 construct: gene CALCA; mature 32-residue calcitonin peptide cut from the calcitonin precursor; disulfide Cys-1/Cys-7, C terminus amidated; no tag
T1 sequence (P01258 85-116 limits assumed): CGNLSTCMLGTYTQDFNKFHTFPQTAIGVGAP
Assay: isothermal titration calorimetry
Format: binding
Settings: read-out: Kb

pKd	Structure (SMILES)
5.58	C=CCc1ccc(O)c(-c2cc(CC=C)ccc2O)c1 [magnolol]
5.19	C=CCc1ccc(O)c(-c2ccc(O)c(CC=C)c2)c1 [honokiol]
